Data reported in patent US11541050B2, “Pyrimidine derivatives for the treatment of viral infections” (JANSSEN SCIENCES IRELAND UC, priority 2011, dated 2023).

Each compound was assayed against T1, human TLR7 (wild type sequence) (Homo sapiens, UniProt Q9NYK1) (assay: TLR7 cellular NFκB-luc reporter assay, wild type TLR7). Conditions: lowest effective concentration, wild type TLR7 (compounds 74 onward).
T1 construct: expressed in transfected cells; host or cells: HEK293
T1 sequence (Q9NYK1 27-1049): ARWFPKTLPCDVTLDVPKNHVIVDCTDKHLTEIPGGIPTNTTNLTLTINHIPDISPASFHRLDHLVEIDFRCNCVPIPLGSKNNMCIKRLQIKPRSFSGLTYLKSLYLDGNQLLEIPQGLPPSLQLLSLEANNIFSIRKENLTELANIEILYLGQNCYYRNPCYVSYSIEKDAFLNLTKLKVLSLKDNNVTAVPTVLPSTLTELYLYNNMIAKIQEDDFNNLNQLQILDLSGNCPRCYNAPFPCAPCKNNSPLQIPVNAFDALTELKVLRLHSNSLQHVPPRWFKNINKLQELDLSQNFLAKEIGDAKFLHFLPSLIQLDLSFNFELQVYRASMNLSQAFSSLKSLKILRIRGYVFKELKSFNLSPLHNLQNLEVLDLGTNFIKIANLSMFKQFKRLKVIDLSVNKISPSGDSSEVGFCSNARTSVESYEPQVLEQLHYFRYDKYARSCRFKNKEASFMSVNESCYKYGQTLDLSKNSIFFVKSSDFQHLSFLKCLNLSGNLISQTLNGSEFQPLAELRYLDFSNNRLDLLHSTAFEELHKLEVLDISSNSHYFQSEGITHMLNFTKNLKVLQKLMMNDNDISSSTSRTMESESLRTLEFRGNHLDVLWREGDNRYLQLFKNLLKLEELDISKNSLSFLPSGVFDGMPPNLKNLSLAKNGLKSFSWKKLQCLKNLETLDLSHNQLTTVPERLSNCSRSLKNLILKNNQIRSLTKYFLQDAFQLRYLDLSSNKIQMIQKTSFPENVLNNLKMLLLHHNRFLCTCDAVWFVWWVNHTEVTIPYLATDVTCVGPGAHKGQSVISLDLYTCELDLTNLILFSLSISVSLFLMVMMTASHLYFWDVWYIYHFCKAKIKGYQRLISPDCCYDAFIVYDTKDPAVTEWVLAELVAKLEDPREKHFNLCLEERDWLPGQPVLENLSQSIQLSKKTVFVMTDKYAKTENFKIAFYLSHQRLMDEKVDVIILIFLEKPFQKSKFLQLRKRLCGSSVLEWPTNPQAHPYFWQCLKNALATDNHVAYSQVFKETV
Type: cell-based
Set-up: unit not given here
Description: (§1) The ability of compounds to activate human TLR7 and/or TLR8 was assessed in a cellular reporter assay using HEK293 cells transiently transfected with a TLR7 or TLR8 expression vector and NFκB-luc reporter construct. In one instance the TLR expression construct expresses the respective wild type sequence or a mutant sequence comprising a deletion in the second leucine-rich repeat of the TLR.
(§2) Briefly, HEK293 cells were grown in culture medium (DMEM supplemented with 10% FCS and 2 mM Glutamine). For transfection of cells in 10 cm dishes, cells were detached with Trypsin-EDTA, transfected with a mix of CMV-TLR7 or TLR8 plasmid (750 ng), NFκB-luc plasmid (375 ng) and a transfection reagent and incubated for 48 hours at 37° C. in a humidified 5% CO2 atmosphere. Transfected cells were then detached with Trypsin-EDTA, washed in PBS and resuspended in medium to a density of 1.67×10^5 cells/mL. Thirty microliters of cells were then dispensed into each well in 384-well plates, where 10 μL of compound in 4% DMSO was already present. Following 6 hours incubation at 37° C., 5% CO2, the luciferase activity was determined by adding 15 μl of Steady Lite Plus substrate (Perkin Elmer) to each well and readout performed on a ViewLux ultraHTS microplate imager (Perkin Elmer). Dose response curves were generated from measurements performed in quadruplicates. Lowest effective concentrations (LEC) values, defined as the concentration that induces an effect which is at least two fold above the standard deviation of the assay, were determined for each compound.

Row | SMILES | TLR 7 wt LEC
1 | CCCCNc1nc(N)ncc1OCc1ccccn1 [Compound 101] | 0.277
2 | CCCCNc1nc(N)ncc1OCc1cncn1[C@H](C)c1ccccc1 [Compound 102] | 0.141
3 | CCCCNc1nc(N)ncc1OCc1cccc(C(=O)c2ccccc2)c1 [Compound 103] | 1.190
4 | CCCCNc1nc(N)ncc1OCC(C)(O)CC (stereo not drawn) [Compound 104] | >25
5 | CCCCNc1nc(N)ncc1OCC(C)(C)O [Compound 105] | >25
6 | CCCC(COC)Nc1nc(N)ncc1OC (stereo not drawn) [Compound 106] | 16.100
7 | CCCCNc1nc(N)ncc1OCCCc1ccc(F)cc1F [Compound 107] | 2.460
8 | CCCCNc1nc(N)ncc1OCCCc1ccccc1Br [Compound 108] | 6.580
9 | CCCCNc1nc(N)ncc1OCCCc1ccc(Cl)cc1 [Compound 109] | 0.790
10 | CCCCNc1nc(N)ncc1OCCCCc1ccccc1 [Compound 110] | 2.380
11 | CCCC(C)Nc1nc(N)ncc1OCCCc1ccccc1 (stereo not drawn) [Compound 112] | 3.960
12 | CCCC[C@@H](CCO)Nc1nc(N)ncc1OCCCc1ccccc1 [Compound 113] | 0.433
13 | CCCC(CCC)Nc1nc(N)ncc1OCCCc1ccccc1 [Compound 114] | 2.020
14 | CC[C@H](C)[C@@H](CO)Nc1nc(N)ncc1OCCCc1ccccc1 [Compound 115] | 6.180
15 | CCCCNc1nc(N)ncc1OCc1cc(-c2ccco2)on1 [Compound 116] | 0.652

These compounds were tested against T2, human TLR8 (wild type sequence) (Homo sapiens, UniProt Q9NR97) (assay: TLR8 cellular NFκB-luc reporter assay, wild type TLR8). Conditions: lowest effective concentration, wild type TLR8 (compounds 74 onward).
T2 construct: expressed in transfected cells; host or cells: HEK293
T2 sequence (Q9NR97 27-1041): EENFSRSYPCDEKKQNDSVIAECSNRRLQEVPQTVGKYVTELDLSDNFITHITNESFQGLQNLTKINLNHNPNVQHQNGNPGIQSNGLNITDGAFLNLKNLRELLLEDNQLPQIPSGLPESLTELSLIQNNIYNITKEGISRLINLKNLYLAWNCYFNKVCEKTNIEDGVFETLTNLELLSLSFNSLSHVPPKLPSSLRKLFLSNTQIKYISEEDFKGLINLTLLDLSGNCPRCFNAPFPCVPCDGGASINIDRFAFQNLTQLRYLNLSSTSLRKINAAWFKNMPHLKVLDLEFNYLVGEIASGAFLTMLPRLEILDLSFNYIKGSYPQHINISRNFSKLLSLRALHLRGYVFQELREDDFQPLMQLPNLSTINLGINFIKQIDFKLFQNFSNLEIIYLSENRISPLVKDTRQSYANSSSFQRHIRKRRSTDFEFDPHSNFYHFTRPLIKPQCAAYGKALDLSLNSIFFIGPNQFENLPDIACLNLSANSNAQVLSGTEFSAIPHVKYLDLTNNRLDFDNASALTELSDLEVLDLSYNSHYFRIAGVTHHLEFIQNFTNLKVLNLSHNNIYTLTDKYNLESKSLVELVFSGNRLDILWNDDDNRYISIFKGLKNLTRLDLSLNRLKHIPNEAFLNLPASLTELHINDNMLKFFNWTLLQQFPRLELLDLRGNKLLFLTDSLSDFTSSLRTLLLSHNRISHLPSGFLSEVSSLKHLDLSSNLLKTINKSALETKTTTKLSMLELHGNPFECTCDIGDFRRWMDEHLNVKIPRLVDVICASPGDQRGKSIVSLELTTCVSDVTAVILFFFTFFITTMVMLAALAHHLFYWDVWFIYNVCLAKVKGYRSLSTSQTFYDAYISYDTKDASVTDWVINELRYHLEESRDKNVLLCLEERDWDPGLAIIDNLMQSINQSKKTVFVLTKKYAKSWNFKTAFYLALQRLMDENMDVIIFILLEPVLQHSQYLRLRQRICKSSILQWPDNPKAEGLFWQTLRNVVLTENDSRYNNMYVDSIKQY
Type: cell-based
Set-up: unit not given here
Description: as §1, §2

Row | SMILES | TLR 8 wt LEC
16 | CCCCNc1nc(N)ncc1OCc1ccccn1 [Compound 101] | 0.597
17 | CCCCNc1nc(N)ncc1OCc1cncn1[C@H](C)c1ccccc1 [Compound 102] | 5.690
18 | CCCCNc1nc(N)ncc1OCc1cccc(C(=O)c2ccccc2)c1 [Compound 103] | 1.270
19 | CCCCNc1nc(N)ncc1OCC(C)(O)CC (stereo not drawn) [Compound 104] | 12.390
20 | CCCCNc1nc(N)ncc1OCC(C)(C)O [Compound 105] | 22.020
21 | CCCC(COC)Nc1nc(N)ncc1OC (stereo not drawn) [Compound 106] | 5.940
22 | CCCCNc1nc(N)ncc1OCCCc1ccc(F)cc1F [Compound 107] | 3.940
23 | CCCCNc1nc(N)ncc1OCCCc1ccccc1Br [Compound 108] | >25
24 | CCCCNc1nc(N)ncc1OCCCc1ccc(Cl)cc1 [Compound 109] | 2.230
25 | CCCCNc1nc(N)ncc1OCCCCc1ccccc1 [Compound 110] | 3.780
26 | CCCC(C)Nc1nc(N)ncc1OCCCc1ccccc1 (stereo not drawn) [Compound 112] | 5.560
27 | CCCC[C@@H](CCO)Nc1nc(N)ncc1OCCCc1ccccc1 [Compound 113] | 2.240
28 | CCCC(CCC)Nc1nc(N)ncc1OCCCc1ccccc1 [Compound 114] | >25
29 | CC[C@H](C)[C@@H](CO)Nc1nc(N)ncc1OCCCc1ccccc1 [Compound 115] | 6.510
30 | CCCCNc1nc(N)ncc1OCc1cc(-c2ccco2)on1 [Compound 116] | 1.610

The compounds below were run on HCV replicon in Huh-7 luc/neo cells (assay: Suppression of HCV replicon replication by conditioned media from compound-treated PBMC). Conditions: Hepatitis C virus; conditioned media from compound-treated PBMC on Huh-7 luc/neo replicon cells (compounds 74 onward); read-out: PBMC HUH-7 EC50.
Type: cell-based, HCV type 1 b
Description: Activation of human TLR7 results in robust production of interferon by plasmacytoid dendritic cells present in human blood. The potential of compounds to induce interferon was evaluated by looking at the antiviral activity in the HCV replicon system upon incubation with conditioned media from peripheral blood mononuclear cells (PBMC). […] The assay utilized the stably transfected cell line Huh-7 luc/neo harboring an RNA encoding a bicistronic expression construct comprising the wild type NS3-NS5B regions of HCV type 1 b translated from an Internal Ribosome Entry Site (IRES) from encephalomyocarditis virus (EMCV), preceded by a reporter gene (Firefly-luciferase) and a selectable marker gene (neoR, neomycine phosphotransferase). The construct is flanked by 5′ and 3′ NTRs (non-translated regions) from HCV type 1 b. Continued culture of the replicon cells in the presence of G418 (neoR) is dependent on the replication of the HCV RNA. The stably transfected replicon cells that replicate HCV RNA autonomously and to high levels, encoding inter alia luciferase, were used for profiling of the conditioned cell culture media.
Briefly, PBMCs were prepared from buffy coats of at least two donors using a standard Ficoll centrifugation protocol. Isolated PBMCs were resuspended in RPMI medium supplemented with 10% human AB serum and 2×10^5 cells/well were dispensed into 384-well plates containing compounds (70 μL total volume). After overnight incubation, 10 μL of supernatant was transferred to 384-well plates containing 2.2×10^3 replicon cells/well in 30 μL (plated the day before). Following 24 hours of incubation, replication was measured by assaying luciferase activity using 40 μL/well Steady Lite Plus substrate (Perkin Elmer) and measured with ViewLux ultraHTS microplate imager (Perkin Elmer). […] Recombinant interferon α-2a (Roferon-A) was used as a standard control compound.

Row | SMILES | EC50
31 | CCCCNc1nc(N)ncc1OCc1ccccn1 [Compound 101] | 0.055 µM
32 | CCCCNc1nc(N)ncc1OCc1cncn1[C@H](C)c1ccccc1 [Compound 102] | 0.012 µM
33 | CCCCNc1nc(N)ncc1OCc1cccc(C(=O)c2ccccc2)c1 [Compound 103] | 0.725 µM
34 | CCCCNc1nc(N)ncc1OCC(C)(O)CC (stereo not drawn) [Compound 104] | > 23.8 µM
35 | CCCCNc1nc(N)ncc1OCC(C)(C)O [Compound 105] | 19.1 µM
36 | CCCC(COC)Nc1nc(N)ncc1OC (stereo not drawn) [Compound 106] | 3.15 µM
37 | CCCCNc1nc(N)ncc1OCCCc1ccc(F)cc1F [Compound 107] | 1.59 µM
38 | CCCCNc1nc(N)ncc1OCCCc1ccccc1Br [Compound 108] | 6.77 µM
39 | CCCCNc1nc(N)ncc1OCCCc1ccc(Cl)cc1 [Compound 109] | 0.393 µM
40 | CCCCNc1nc(N)ncc1OCCCCc1ccccc1 [Compound 110] | 0.74 µM
41 | CCCC(C)Nc1nc(N)ncc1OCCCc1ccccc1 (stereo not drawn) [Compound 112] | 3.35 µM
42 | CCCC[C@@H](CCO)Nc1nc(N)ncc1OCCCc1ccccc1 [Compound 113] | 0.251 µM
43 | CCCC(CCC)Nc1nc(N)ncc1OCCCc1ccccc1 [Compound 114] | 2 µM
44 | CC[C@H](C)[C@@H](CO)Nc1nc(N)ncc1OCCCc1ccccc1 [Compound 115] | 3.73 µM
45 | CCCCNc1nc(N)ncc1OCc1cc(-c2ccco2)on1 [Compound 116] | 0.066 µM
